Experimental data published in patent publication US6986896B2, “Method of treating fungal conditions of the skin” (Bradley Pharmaceuticals, Inc., priority 2002, dated 2006).

Tested on: Trychophyton rubrum
Test: Percent kill rate of topical products inoculated with T. rubrum (residual microbial content by serial dilution)
Type: cell-based
Protocol: Various compositions, e.g. creams, lotions, and gels, containing urea as the sole active ingredient at various concentrations were tested against Trychophyton rubrum, a fungus typically implicated in Moccasin tinea pedis and onychomycosis, and compared to traditional antifungal compositions. A solution of the individual or combination products were inoculated with a known starting concentration of T. rubrum. These solutions were then retested at the specific time intervals to determine the residual microbial content.
The decrease in the residual microbial content calculated as a percentage of its initial starting concentration is the percent kill rate reported in the following table.

NC(N)=O [urea]
antifungal activity (conclusion from the kill rate tests): effective antifungal agent
